# Residues, ends and D or L forms follow the SMILES beside them. *: point of attachment. Cbz = O=C(OCc1ccccc1)*
# Tested on: Vero-E6 cells
# Assay: cells
# Type: cell-based
# Details: Chlorocebus sabaeus, Vero C1008, 24 h, read-out: PL_Result
row,SMILES,activation at 10 µM [%]
1,Cc1nnc(C(=O)NC(C)(C)c2nc(C(=O)NCc3ccc(F)cc3)c(O)c(=O)n2C)o1 [SPE_K05658747],-12.8
2,COc1ccc(NS(=O)(=O)c2ccc(I)cc2)cc1N1CCN(C)CC1 [SPE_K80639402],17.6
3,C[C@]12CC[C@H](O)C[C@H]1CC[C@@H]1[C@@H]2C[C@@H](O)[C@]2(C)[C@@H](C3=CC(=O)OC3)CC[C@]12O [SPE_K18619710],-13.9
4,C=C(C)CN1CC[C@]23c4c5ccc(O)c4O[C@H]2c2[nH]c4ccccc4c2C[C@@]3(O)C1C5 [SPE_A75769826],35
5,O=C(O)C1=CCNCC1 [SPE_K66480997],-5.88
6,O=C(O)C1=CCCN(CCON=C(c2ccccc2)c2ccccc2)C1 [SPE_K42221274],0.196
7,Nc1c[n+](N2CCOCC2)no1 [SPE_K72922393],-10.9
8,CNC(=O)c1c(C)oc2cc(Oc3ncnc4cc(OC)c(OC)cc34)ccc12 [SPE_K70504253],8.27
9,O=C(Nc1c(Cl)cncc1Cl)c1ccc(OC(F)F)c(OCC2CC2)c1 [SPE_K03194791],-2.86
10,CCN(CC)CCN(Cc1ccc(-c2ccc(C(F)(F)F)cc2)cc1)C(=O)Cn1c(SCc2ccc(F)cc2)nc(=O)c2c1CCC2 [SPE_K19085898],-5.09
11,O=C(O)CC1CC(c2ccccc2)=NO1 (stereo not shown) [SPE_A32269193],-19.4
12,Cn1ncnc1COc1nn2c(-c3cc(F)ccc3F)nnc2cc1C(C)(C)C [SPE_K46647427],-14.8
13,CCOC(=O)c1ccccc1OC(N)=O [SPE_K21892374],3.89
14,O=C(Nc1ccc(S(=O)(=O)C(F)(F)F)cc1)C1=CCN(c2ncccc2C(F)(F)F)CC1 [SPE_K87665527],1.59
15,Nc1c(S(=O)(=O)O)cc(Nc2cccc3ccccc23)c2c1C(=O)c1ccccc1C2=O [SPE_K71266197],-13.9
16,Cc1ccc(N2CCN(CCC3NC(=O)c4ccccc43)CC2)cc1C (stereo not shown) [SPE_A82013137],-6.23
17,CN1CCN(c2ccc3nc(-c4ccc5nc(-c6ccc(O)cc6)[nH]c5c4)[nH]c3c2)CC1 [SPE_K17026858],-8.8
18,COc1cc(COc2cc(N)c(Cl)cc2C(=O)CCC2CCN(CCNS(C)(=O)=O)CC2)cc(OC)c1 [SPE_K20742498],-9.12
19,Clc1ccc(C(OCCN2CCCCC2)c2ccccc2)cc1 (stereo not shown) [SPE_A80908310],72.5
20,CCOC(=O)[C@@H](N)Cc1ccc(O)c(O)c1 [SPE_K90982969],-3.7
21,Clc1ccc(C(Cn2ccnc2)OCc2ccc(Sc3ccccc3)cc2)c(Cl)c1 (stereo not shown) [SPE_A33697453],17.3

row,SMILES,activation at 10 µM [%]
1,O=C(N[C@H]1CN2CCC1CC2)c1ccc(Cl)cc1 [SPE_K28863208],-0.0405
2,C[C@@H](C1=C(CCN(C)C)Cc2ccccc21)c1ccccn1 [SPE_K83192048],11.3
3,CC(C)S(=O)(=O)NC[C@H](C)c1ccc(-c2ccc(CCNS(C)(=O)=O)cc2)cc1 [SPE_K42981054],-11.8
4,Clc1ccc(C23CNCC2C3)cc1Cl (stereo not shown) [SPE_A68942014],-4.9
5,CC(=O)NC[C@H]1CN(c2ccc(N3CCN(C(=O)CO)CC3)c(F)c2)C(=O)O1 [SPE_K47554101],-3.34
6,Cc1c(-c2ccnn2C)cc(C(=O)NCc2ccc(S(C)(=O)=O)cn2)c(=O)n1-c1cccc(C(F)(F)F)c1 [SPE_K31476763],-9.37
7,CC(=O)Nc1ccc(CC(=O)O)cc1 [SPE_K33483813],2.74
8,C1CCC2(CC1)CCNCC2 [SPE_K49545903],-14.5
9,CCc1ccc(CCOc2ccc(CC3SC(=O)NC3=O)cc2)nc1 (stereo not shown) [SPE_A48430263],-1.25
10,CCCN(C/C=C/I)C1CCc2cccc(O)c2C1 (stereo not shown) [SPE_A60594020],6.75
11,C[C@]12CC[C@H]3[C@@H](CCC4=CC(=O)CC[C@@]43C)[C@@H]1CC[C@@H]2C(=O)CO [SPE_K98521173],-5.9
12,COc1cc(N)c(Cl)cc1C(=O)NC1CN2CCC1CC2 (stereo not shown) [SPE_A65615053],-14.1
13,CCc1cc2c(c(CC)n1)CCC(=O)N2Cc1ccc(-c2ccccc2-c2nnn[nH]2)cc1 [SPE_K11373525],-4.91
14,COc1ccc(-n2c(C)c([N+](=O)[O-])c3ccc(O)cc32)cc1 [SPE_K39166528],-10.4
15,CCC(=O)c1ccc(OCC(O)CN2CCN(c3ccccc3)CC2)cc1 (stereo not shown) [SPE_A28958257],-1.6
16,CC(C)(C)NCC(O)c1cc(O)cc(O)c1 (stereo not shown) [SPE_M79902621],-4.19
17,Cc1[nH]c2ccccc2c1CCNCc1ccc(/C=C/C(=O)NO)cc1 [SPE_K02130563],-9.42
18,COc1cc(N)c(Cl)cc1C(=O)OCCN1CCCCC1 [SPE_K69343602],-4.29
19,Cc1ccc(C(=O)Nc2ccc(CN3CCN(C)CC3)c(C(F)(F)F)c2)cc1C#Cc1cnc2[nH]ncc2c1 [SPE_K35329391],-3.83
20,CC(C)COC(=O)c1ccc(N)cc1 [SPE_K96714749],1.09
21,C[C@H](NC(=O)/C(C#N)=C/c1cccc(Br)n1)c1ccccc1 [SPE_K05445342],3.2

row,SMILES,activation at 10 µM [%]
1,N#CCNC(=O)c1ccc(-c2ccnc(Nc3ccc(N4CCOCC4)cc3)n2)cc1 [SPE_K87737963],7.32
2,CCN(CC)CCOCCOC(=O)C1(c2ccccc2)CCCC1 [SPE_K06181161],11.3
3,CN(CC[C@@H](Oc1ccc(-c2ccccc2)cc1)c1ccc(F)cc1)CC(=O)O [SPE_K53979406],-9.75
4,Nc1nc(OCc2ccccc2)c2nc[nH]c2n1 [SPE_K92041145],-3.41
5,CC(C)C[C@@H](C=O)NC(=O)[C@H](CC(C)C)NC(=O)[C@H](CC(C)C)NC(=O)OCc1ccccc1 [SPE_K60230970] (Cbz-Leu-Leu-Leu-aldehyde),-0.437
6,CC(=O)NCCc1c[nH]c2ccccc12 [SPE_K73700643],-6.27
7,O=[N+]([O-])c1cc(Cl)ccc1S(=O)(=O)N1CCN(Cc2ccccc2)CC1 [SPE_K45519571],3.29
8,CC(=O)Nc1ccc(S(=O)(=O)Nc2ccc([N+](=O)[O-])cc2)cc1 [SPE_K76845197],-3.76
9,CNc1ncc2cc(-c3cc(NC(=O)NCCC(C)(C)C)c(F)cc3C)c(C)nc2n1 [SPE_K38385169],-2.79
10,CCC(C)(C)C(=O)C(=O)N1CCC[C@H]1C(=O)OCCCc1cccnc1 [SPE_K44869961],2.45
11,OC(CN1CCN(c2cccc(Cl)c2)CC1)C(c1ccccc1)c1ccccc1 (stereo not shown) [SPE_A51829654],-10.3
12,CC(C)(Sc1cc(C(C)(C)C)c(O)c(C(C)(C)C)c1)Sc1cc(C(C)(C)C)c(O)c(C(C)(C)C)c1 [SPE_K72029282],-0.8
13,COc1cc(C(=S)N2CCOCC2)cc(OC)c1OC [SPE_K29570907],-7.35
14,CCOc1cccc(NC(=O)c2ccc(N3CCCC3)c(C(F)(F)F)c2)c1 [SPE_K42536037],-13.1
15,CC(=O)C1(N)Cc2c(O)c3c(c(O)c2[C@@H](O[C@H]2C[C@H](O)[C@H](O)CO2)C1)C(=O)c1ccccc1C3=O (stereo partly shown) [SPE_K13843533],6.95
16,CCS(=O)(=O)N1CCC[C@@H]2CN3CCc4cc(OC)ccc4[C@@H]3C[C@@H]21 [SPE_K86600316],-8.68
17,Cn1cc(C2=C(c3cn(C4CCN(Cc5ccccn5)CC4)c4ccccc34)C(=O)NC2=O)c2ccccc21 [SPE_K79404599],-2.44
18,CC(C)OC(=O)OCOP(=O)(CO[C@H](C)Cn1cnc2c(N)ncnc21)OCOC(=O)OC(C)C [SPE_K61868322],-3.62
19,CCN1C(=O)NC(c2ccccc2)C1=O (stereo not shown) [SPE_A30205217],-4.7
20,CCOC(=O)Nc1ccc2c(c1)N(C(=O)CN(CC)CC)c1ccccc1CC2 [SPE_K24570280],3.49
21,Cc1cccc(-c2n[nH]cc2-c2ccc3ncccc3n2)n1 [SPE_K80480517],0.32

row,SMILES,activation at 10 µM [%]
1,O=C1c2ccccc2C(Cc2ccnc(F)c2)(Cc2ccnc(F)c2)c2ccccc21 [SPE_K89274813],-6.43
2,CNCCc1c[nH]cn1 [SPE_K64422603],-17.3
3,Cc1[nH]nc(C(F)(F)F)c1Cc1sc2c(c1C(=O)N1C[C@](C)(O)CO1)c(=O)n(C)c(=O)n2C(C)C [SPE_K25210703],-5.25
4,c1ccc2oc(C3=NCCN3)cc2c1 [SPE_K22745370],-9.99
5,CCc1ccc2c(-c3cccc(Cl)c3)nc(=O)n(CC)c2n1 [SPE_K12932420],0.000931
6,O=C(Nc1cccnc1)N1CCC(Cc2cccc(Oc3ccc(C(F)(F)F)cn3)c2)CC1 [SPE_K68997413],1.53
7,CC(=O)c1ccc2c(c1)N(CCCN(C)C)c1ccccc1S2 [SPE_K37814297],27.3
8,CC(C)n1cnc2c(C(=O)N[C@H]3CN4CCC3CC4)cc(Cl)cc21 [SPE_K80725821],0.494
9,O=C(O)c1cn(-c2ccc(F)cc2)c2cc(N3CCNCC3)c(F)cc2c1=O [SPE_K08525451],-3.13
10,CC(=O)OCC(=O)[C@@]1(O)CC[C@H]2[C@@H]3CCC4=CC(=O)C=C[C@]4(C)[C@@]3(F)[C@@H](O)C[C@@]21C [SPE_K29173907],-3.84
11,COc1ccc(-c2sc(NC(=O)C(C)(C)C)nc2C)cc1S(=O)(=O)Nc1ccc(O)cc1 [SPE_K75528696],21.7
12,CCc1cc2c(cc1N1CCC(N3CCOCC3)CC1)C(C)(C)c1[nH]c3cc(C#N)ccc3c1C2=O [SPE_K11267252],0.894
13,CN(C)CCc1c[nH]c2ccc(CS(=O)(=O)N3CCCC3)cc12 [SPE_K67601717],-4.95
14,CCc1ccc(C(=O)C(C)CN2CCCCC2)cc1 (stereo not shown) [SPE_A04252265],-4.05
15,COc1ccc(COc2cc3oc(=O)c4cc(C(C)O)ccc4c3cc2OC)cc1 (stereo not shown) [SPE_A50998626],-7.77
16,CCOCCn1c(C2CCN(CCc3ccc(C(C)(C)C(=O)O)cc3)CC2)nc2ccccc21 [SPE_K51937257],-5.44
17,NC1CCN(c2cccnc2)C1 (stereo not shown) [SPE_A29844814],-9.03
18,CC(=O)OCC(=O)NCCCOc1cccc(CN2CCCCC2)c1 [SPE_K81855038],-10.7
19,CCCCCCCCCCCCCCCCCCCCCC(=O)Nc1ccn([C@@H]2O[C@H](CO)[C@@H](O)[C@@H]2O)c(=O)n1 [SPE_K32007074],-0.592

# Reference: paper PMC13083723 (Patterns, 2026)
